Experimental data reported in patent EP0938471B1, “THE PREPARATION AND USE OF ORTHO-SULFONAMIDO ARYL HYDROXAMIC ACIDS AS MATRIX METALLOPROTEINASE AND TACE INHIBITORS” (priority 1996, dated 1998).
pIC50: −log10 of the molar value. Like-named read-outs stand apart in the source and are kept apart here.

How the values were obtained:
Format in all cases: biochemical
TACE = TACE (Homo sapiens, UniProt P78536); assay: TACE inhibition (fluorescent peptidyl substrate); conditions: for inhibition at 1 µM: at 1µM concentration
Sequence of TACE (P78536 215-824): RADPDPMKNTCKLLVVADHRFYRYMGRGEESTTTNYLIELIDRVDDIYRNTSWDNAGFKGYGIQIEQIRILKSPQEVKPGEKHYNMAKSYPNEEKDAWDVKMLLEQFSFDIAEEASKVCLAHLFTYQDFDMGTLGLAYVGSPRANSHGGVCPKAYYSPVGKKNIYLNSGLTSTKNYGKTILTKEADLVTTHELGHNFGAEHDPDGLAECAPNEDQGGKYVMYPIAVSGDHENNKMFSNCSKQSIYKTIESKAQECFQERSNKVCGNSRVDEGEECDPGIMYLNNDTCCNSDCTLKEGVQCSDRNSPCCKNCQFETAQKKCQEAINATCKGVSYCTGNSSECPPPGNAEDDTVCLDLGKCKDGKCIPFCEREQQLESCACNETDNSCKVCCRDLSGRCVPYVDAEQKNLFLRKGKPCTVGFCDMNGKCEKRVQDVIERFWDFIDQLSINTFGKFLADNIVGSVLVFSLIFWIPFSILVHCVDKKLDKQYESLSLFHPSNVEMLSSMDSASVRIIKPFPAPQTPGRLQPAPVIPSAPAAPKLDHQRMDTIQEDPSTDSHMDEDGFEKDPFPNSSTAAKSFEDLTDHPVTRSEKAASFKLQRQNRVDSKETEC
Description: Using 96-well black microtiter plates, each well receives a solution composed of 10 µL TACE (Immunex, final concentration 1µg/mL), 70µL Tris buffer, pH 7.4 containing 10% glycerol (final concentration 10 mM), and 10 µL of test compound solution in DMSO (final concentration 1µM, DMSO concentration <1%) and incubated for 10 minutes at room temperature.
The reaction is read (excitation 340 nm, emission 420 nm) for 10 min. and the increase in fluorescence over time is plotted as a linear line. The slope of the line is calculated and represents the reaction rate.
The linearity of the reaction rate is confirmed (r^2 >0.85). The mean (x±sem) of the control rate is calculated and compared for statistical significance (p<0.05) with drug-treated rates using Dunnett's multiple comparison test.

MMP-1 = biological target: T1, MMP-1 (Homo sapiens, UniProt P03956); assay: MMP-1 inhibition (thiopeptide or fluorescent peptide substrate assay); conditions: for pIC50: read-out: MMP-1 IC50; for inhibition at 1 µM: read-out: MMP-1 % inhibition, footnote: 1µM
T1 sequence (P03956 100-469): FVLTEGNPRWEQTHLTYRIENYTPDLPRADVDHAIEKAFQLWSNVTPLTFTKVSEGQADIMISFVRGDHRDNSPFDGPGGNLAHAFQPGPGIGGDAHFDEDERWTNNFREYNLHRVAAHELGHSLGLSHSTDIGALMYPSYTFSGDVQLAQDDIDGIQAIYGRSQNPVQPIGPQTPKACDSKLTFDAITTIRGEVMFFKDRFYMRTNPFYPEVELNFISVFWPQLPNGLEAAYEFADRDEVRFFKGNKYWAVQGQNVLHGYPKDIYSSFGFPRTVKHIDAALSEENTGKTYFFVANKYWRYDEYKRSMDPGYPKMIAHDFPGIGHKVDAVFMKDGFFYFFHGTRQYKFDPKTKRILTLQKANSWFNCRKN
Description: The enzyme activity is measured by the rate of the color increase. The thiopeptide substrate is made up fresh as a 20 mM stock in 100% DMSO and the DTNB is dissolved in 100% DMSO as a 100 mM stock and stored in the dark at room temperature. Both the substrate and DTNB are diluted together to 1 mM with substrate buffer (50 mM HEPES pH 7.5, 5 mM CaCl2) before use. The stock of enzyme is diluted with assay buffer (50 mM HEPES, pH 7.5, 5 mM CaCl2, 0.02% Brij) to the desired final concentration.
Alternatively, a fluorescent peptide substrate is used. In this assay, the peptide substrate contains a fluorescent group and a quenching group. Upon cleavage of the substrate by an MMP, the fluorescence that is generated is quantitated on the fluorescence plate reader. The assay is run in HCBC assay buffer (50mM HEPES, pH 7.0, 5 mM Ca^+2, 0.02% Brij, 0.5% Cysteine), with human recombinant MMP-1, MMP-9, or MMP-13. The substrate is dissolved in methanol and stored frozen in 1 mM aliquots. For the assay, substrate and enzymes are diluted in HCBC buffer to the desired concentrations. Compounds are added to the 96 well plate containing enzyme and the reaction is started by the addition of substrate.
For either the thiopeptide or fluorescent peptide assays, the slope of the line is calculated and represents the reaction rate. The linearity of the reaction rate is confirmed (r^2 >0.85). The mean (x±sem) of the control rate is calculated and compared for statistical significance (p<0.05) with drug-treated rates using Dunnett's multiple comparison test.

MMP-9 = MMP-9 (Homo sapiens, UniProt P14780); assay: MMP-9 inhibition (thiopeptide or fluorescent peptide substrate assay); conditions: for pIC50: read-out: MMP-9 IC50; for inhibition at 1 µM: read-out: MMP-9 % inhibition, footnote: 1µM
Sequence of MMP-9 (P14780 94-707): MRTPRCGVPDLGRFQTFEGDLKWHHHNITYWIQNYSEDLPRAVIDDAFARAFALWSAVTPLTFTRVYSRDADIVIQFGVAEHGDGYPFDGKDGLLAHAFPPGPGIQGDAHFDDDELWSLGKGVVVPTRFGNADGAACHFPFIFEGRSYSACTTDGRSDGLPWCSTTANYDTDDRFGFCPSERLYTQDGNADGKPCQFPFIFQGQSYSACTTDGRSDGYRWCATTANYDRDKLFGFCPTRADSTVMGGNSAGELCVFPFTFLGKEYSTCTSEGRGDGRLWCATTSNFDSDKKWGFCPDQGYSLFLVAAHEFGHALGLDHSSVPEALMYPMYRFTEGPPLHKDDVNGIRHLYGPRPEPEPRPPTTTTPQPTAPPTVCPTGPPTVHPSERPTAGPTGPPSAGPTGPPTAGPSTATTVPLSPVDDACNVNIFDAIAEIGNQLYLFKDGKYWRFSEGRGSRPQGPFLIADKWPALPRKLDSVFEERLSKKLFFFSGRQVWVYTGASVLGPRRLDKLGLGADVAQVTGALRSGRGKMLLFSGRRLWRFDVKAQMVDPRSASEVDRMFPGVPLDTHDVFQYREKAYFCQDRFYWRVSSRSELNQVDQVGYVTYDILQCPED
Description: (§1) The enzyme activity is measured by the rate of the color increase. The thiopeptide substrate is made up fresh as a 20 mM stock in 100% DMSO and the DTNB is dissolved in 100% DMSO as a 100 mM stock and stored in the dark at room temperature. Both the substrate and DTNB are diluted together to 1 mM with substrate buffer (50 mM HEPES pH 7.5, 5 mM CaCl2) before use. […] Alternatively, a fluorescent peptide substrate is used. In this assay, the peptide substrate contains a fluorescent group and a quenching group. Upon cleavage of the substrate by an MMP, the fluorescence that is generated is quantitated on the fluorescence plate reader. […] The substrate is dissolved in methanol and stored frozen in 1 mM aliquots. For the assay, substrate and enzymes are diluted in HCBC buffer to the desired concentrations. Compounds are added to the 96 well plate containing enzyme and the reaction is started by the addition of substrate. […] For either the thiopeptide or fluorescent peptide assays, the slope of the line is calculated and represents the reaction rate. […] The mean (x±sem) of the control rate is calculated and compared for statistical significance (p<0.05) with drug-treated rates using Dunnett's multiple comparison test.

MMP-13 = MMP-13 (Homo sapiens, UniProt P45452); assay: MMP-13 inhibition (thiopeptide or fluorescent peptide substrate assay); conditions: for inhibition at 1 µM: read-out: MMP-13 % inhibition, footnote: 1µM
Description: as §1

SMILES | pIC50 (TACE; read-out: TACE IC50) | pIC50 (MMP-1) | pIC50 (MMP-9) | pIC50 (MMP-13; read-out: MMP-13 IC50) | inhibition at 1 µM (TACE) [%] | inhibition at 1 µM (MMP-1) [%] | inhibition at 1 µM (MMP-9) [%] | inhibition at 1 µM (MMP-13) [%] | pIC50 (TACE) | pIC50 (MMP-13)
COc1ccc(S(=O)(=O)N(Cc2cccnc2)c2c(C)cc(-c3ccccc3C(F)(F)F)cc2C(=O)NO)cc1 [Example 252, 4-[(4-Methoxy-benzenesulfonyl)-pyridin-3-ylmethyl-amino]-5-methyl-2'-trifluoromethyl-biphenyl-3-carboxylic acid hydroxyamide] | 6.46 | 6.19 | 7.82 | 8.00 | – | – | – | – | – | –
COc1ccc(S(=O)(=O)N(Cc2cccnc2)c2c(C)cc(-c3ccco3)cc2C(=O)NO)cc1 [Example 255, 5-Furan-2-yl-N-hydroxy-2-[(4-methoxy-benzenesulfonyl)-pyridin-3-ylmethyl-amino]-3-methyl-benzamide] | 7.19 | 7.32 | 8.15 | 8.49 | – | – | – | – | – | –
COc1ccc(S(=O)(=O)N(Cc2cccnc2)c2c(C)cc(-c3sccc3C=NO)cc2C(=O)NO)cc1 [Example 258, N-Hydroxy-5-[3-(hydroxyimino-methyl)-thiophen-2-yl]-2-[(4-methoxy-benzenesulfonyl)-pyridin-3-ylmethyl-amino]-3-methyl-benzamide] | 6.96 | 6.77 | 8.10 | 8.15 | – | – | – | – | – | –
COc1ccc(S(=O)(=O)N(Cc2cccnc2)c2c(C)cc(-c3ccc(Cl)s3)cc2C(=O)NO)cc1 [Example 261, 5-(5-Chloro-thiophen-2-yl)-N-hydroxy-2-[(4-methoxy-benzenesulfonyl)-pyridin-3-ylmethyl-amino]-3-methyl-benzamide] | 7.27 | 6.61 | 8.89 | 8.55 | – | – | – | – | – | –
COc1ccc(S(=O)(=O)N(Cc2cccnc2)c2c(C)cc(-c3ccc(C(C)=O)s3)cc2C(=O)NO)cc1 [Example 264, 5-(5-Acetyl-thiophen-2-yl)-N-hydroxy-2-[(4-methoxy-benzenesulfonyl)-pyridin-3-ylmethyl-amino]-3-methyl-benzamide] | 7.11 | 6.80 | 8.43 | 8.19 | – | – | – | – | – | –
C=Cc1cc(C)c(N(Cc2ccccc2)S(=O)(=O)c2ccc(OC)cc2)c(C(=O)NO)c1 [Example 267, 2-[Benzyl-(4-methoxy-benzenesulfonyl)-amino]-N-hydroxy-3-methyl-5-vinyl-benzamide] | 6.87 | 7.23 | 8.52 | 7.89 | – | – | – | – | – | –
CCc1cc(C)c(N(Cc2cccnc2)S(=O)(=O)c2ccc(OC)cc2)c(C(=O)NO)c1 [Example 277, 5-Ethyl-N-hydroxy-2-[(4-methoxy-benzenesulfonyl)-pyridin-3-ylmethyl-amino]-3-methyl-benzamide] | 7.47 | 7.25 | 8.40 | 8.40 | – | – | – | – | – | –
COc1ccc(S(=O)(=O)N(Cc2cccnc2)c2c(C)cc(-c3cccnc3)cc2C(=O)NO)cc1 [Example 285, N-Hydroxy-2-[(4-methoxy-benzenesulfonyl)-pyridin-3-ylmethyl-amino]-3-methyl-5-pyridin-3-yl-benzamide] | 7.21 | 6.51 | 8.22 | 8.01 | – | – | – | – | – | –
COc1ccc(S(=O)(=O)N(Cc2ccccc2)c2c(C)ccc(C)c2C(=O)NO)cc1 [Example 292, 2-[Benzyl-(4-methoxy-benzenesulfonyl)-amino]-N-hydroxy-3,6-dimethyl-benzamide] | – | 6.74 | 8.10 | 7.54 | 7 | – | – | – | – | –
COc1ccc(S(=O)(=O)N(Cc2cccnc2)c2c(C)ccc(C)c2C(=O)NO)cc1 [Example 297, N-Hydroxy-2-[(4-methoxy-benzenesulfonyl)-pyridin-3-ylmethyl-amino]-3,6-dimethyl-benzamide] | – | 6.53 | 8.05 | 7.85 | 58 | – | – | – | – | –
COc1ccc(S(=O)(=O)N(Cc2cccnc2)c2c(C)cc(-c3cc(-c4ccc(C)o4)no3)cc2C(=O)NO)cc1 [Example 301, N-Hydroxy-2-[(4-methoxy-benzenesulfonyl)-pyridin-3-ylmethyl-amino]-3-methyl-5-[3-(5-methyl-furan-2-yl)-isoxazol-5-yl]-benzamide] | 5.83 | 6.68 | 8.16 | 8.06 | – | – | – | – | – | –
Cc1cc(Br)cc(C(=O)NO)c1N(Cc1ccccc1)S(=O)(=O)c1ccc(OCc2ccccc2)cc1 [Example 308] | 6.55 | – | – | – | – | 10 | 45 | 36 | – | –
COc1ccc(S(=O)(=O)N(C)c2c(CN3CCOCC3)cccc2C(=O)NO)cc1 [Example 309, N-Hydroxy-2-[(4-methoxy-benzenesulfonyl)-methyl-amino]-3-morpholin-4-ylmethyl-benzamide] | – | 6.22 | 8.30 | – | – | – | – | – | 6.76 | 7.85
COc1ccc(S(=O)(=O)N(C)c2c(CN3CCCC3)cccc2C(=O)NO)cc1 [Example 310, N-Hydroxy-2-[(4-methoxy-benzenesulfonyl)-methyl-amino]-3-pyrrolidin-1-ylmethyl-benzamide] | 6.81 | 5.32 | 7.68 | 7.00 | – | – | – | – | – | –
COc1ccc(S(=O)(=O)N(C)c2c(Cn3ccnc3)cccc2C(=O)NO)cc1 [Example 311, N-Hydroxy-3-imidazol-1-ylmethyl-2-[(4-methoxy-benzenesulfonyl)-methyl-amino]-benzamide] | – | 6.11 | 8.00 | – | – | – | – | – | 6.80 | 7.37
COc1ccc(S(=O)(=O)N(C)c2c(CN3CCCC3)cc(Br)cc2C(=O)NO)cc1 [Example 314, 5-Bromo-N-hydroxy-2-[(4-methoxy-benzenesulfonyl)-methylamino]-3-pyrrolidin-1-ylmethyl-benzamide] | 7.57 | 6.02 | 8.08 | 7.89 | – | – | – | – | – | –
COc1ccc(S(=O)(=O)N(Cc2cccnc2)c2c(CN3CCCC3)cccc2C(=O)NO)cc1 [Example 320, N-Hydroxy-2-[(4-methoxy-benzenesulfonyl)-pyridin-3-ylmethyl-amino]-3-pyrrolidin-1-ylmethyl-benzamide] | 6.85 | 5.66 | 7.34 | 6.82 | – | – | – | – | – | –
CCCCCCCCN(c1c(CN2CCN(C)CC2)cccc1C(=O)NO)S(=O)(=O)c1ccc(OC)cc1 [Example 325, N-Hydroxy-2-[(4-methoxy-benzenesulfonyl)-octyl-amino]-3-(4-methyl-piperazin-1-ylmethyl)-benzamide] | 5.79 | – | 8.62 | 8.72 | 47 | 15 | 49 | 60 | – | –
COc1ccc(S(=O)(=O)N(Cc2ccsc2)c2c(CN3CCN(C)CC3)cccc2C(=O)NO)cc1 [Example 328, N-Hydroxy-2-[(4-methoxy-benzenesulfonyl)-thiophen-3-ylmethyl-amino]-3-(4-methyl-piperazin-1-ylmethyl)-benzamide] | 6.58 | 6.49 | 8.31 | 7.89 | – | – | – | – | – | –
COc1ccc(S(=O)(=O)N(Cc2ccccc2)c2c(CN3CCN(C)CC3)cccc2C(=O)NO)cc1 [Example 329, N-Hydroxy-2-[[(4-methoxyphenyl)sulfonyl](phenylmethyl)-amino]-3-[(4-methyl-1-piperazinyl)methyl]benzamide] | 6.76 | 6.50 | 8.21 | 7.64 | – | – | – | – | – | –
COc1ccc(S(=O)(=O)N(Cc2cccnc2)c2c(COC3CCCCO3)cccc2C(=O)NO)cc1 (centres unmarked) [Example 339, N-Hydroxy-2-[(4-methoxy-benzenesulfonyl)-pyridin-3-ylmethyl-amino]-3-(tetrahydro-pyran-2-yloxymethyl)-benzamide] | 6.25 | 6.67 | 8.28 | 8.24 | – | – | – | – | – | –
COc1ccc(S(=O)(=O)N(Cc2cccnc2)c2c(CO)cccc2C(=O)NO)cc1 [Example 340, N-Hydroxy-3-hydroxymethyl-2-[(4-methoxy-benzenesulfonyl)-pyridin-3-ylmethyl-amino]-benzamide] | 6.96 | 6.28 | 7.96 | 7.52 | – | – | – | – | – | –
COc1ccc(S(=O)(=O)N(Cc2ccccc2)c2c(OCCO[Si](C)(C)C(C)(C)C)cccc2C(=O)NO)cc1 [Example 344, 2-[Benzyl-(4-methoxy-benzenesulfonyl)-amino]-3-[2-(tert-butyl-dimethyl-silanyloxy)-ethoxy]-N-hydroxy-benzamide] | 6.28 | 5.93 | 7.16 | 6.49 | – | – | – | – | – | –
COc1ccc(S(=O)(=O)N(Cc2ccccc2)c2c(OCCO)cccc2C(=O)NO)cc1 [Example 345, 2-[Benzyl-(4-methoxy-benzenesulfonyl)-amino]-N-hydroxy-3-(2-hydroxy-ethoxy)-benzamide] | 6.28 | 5.94 | 7.51 | 6.87 | – | – | – | – | – | –
COc1ccc(S(=O)(=O)N(C)c2c(CCC(=O)NO)cc(Br)cc2C(=O)NO)cc1 [Example 349, 5-Bromo-N-hydroxy-3-[2-(hydroxycarbamoyl)-ethyl]-2-[(4-methoxy-benzenesulfonyl)-methyl-amino]-benzamide] | 7.49 | 6.40 | 8.10 | 8.05 | – | – | – | – | – | –
COc1ccc(S(=O)(=O)N(C)c2c(CCC(=O)NO)cccc2C(=O)NO)cc1 [Example 350] | 6.43 | 6.35 | 8.30 | 7.68 | – | – | – | – | – | –
